Earlier results, collected in US6982284B1, “Compositions and methods for modification of skin lipid content” (Applied Genetics Incorporated Dermatics, priority 1999, dated 2006).

Test system: living skin equivalents

Compound | glucosylceramides and ceramides, most notably ceramides 6 and 7 (50 ug/ml) | effect on lipid composition
O=C1O[C@H]([C@@H](O)CO)C(O)=C1O [Vitamin C] | increases | –
Vitamin E | – | no effect
